Experimental data: US20110135772A1, “SKIN CARE AGENT AND COMPOSITIONS THEREOF” (priority 2009, published 2011)

Target: elastase (Sus scrofa, UniProt P00772)
Assay: Elastase inhibition assay (succinyl-L-alanyl-L-alanyl-L-alanyl-p-nitroanilide hydrolysis, 410 nm)
Format: biochemical
Experimental: 300 μl (0.6 mg) of succinyl-L-alanyl-L-alanyl-L-alanyl-p-nitroanilide (the enzyme substrate), 1200 μl of buffer and varying amounts of the elastase inhibitor under testing are incubated at 37° C. for 20 minutes. The hydrolysis is measured by the spectrophotometric measurement of the release of p-nitroaniline at a wavelength of 410 nm.
The anti-aging activity of the individual molecules along with different combinations were studied and the results mentioned in Table.2

Chain of elastase (P00772 27-266): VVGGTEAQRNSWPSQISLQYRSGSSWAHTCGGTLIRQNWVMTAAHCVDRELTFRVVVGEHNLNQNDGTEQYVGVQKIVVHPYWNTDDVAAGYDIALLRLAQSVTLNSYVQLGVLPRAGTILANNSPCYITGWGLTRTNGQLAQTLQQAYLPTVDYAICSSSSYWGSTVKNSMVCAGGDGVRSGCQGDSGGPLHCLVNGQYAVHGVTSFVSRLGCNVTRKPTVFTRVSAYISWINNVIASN

O=C(OC[C@H]1O[C@@H](OC(=O)c2cc(O)c(O)c(O)c2)[C@H](OC(=O)c2cc(O)c(O)c(O)c2)[C@@H](OC(=O)c2cc(O)c(O)c(O)c2)[C@@H]1OC(=O)c1cc(O)c(O)c(O)c1)c1cc(O)c(O)c(O)c1 [Formula 3, pentagalloyl glucose]
Inhibition (at 70 μg/ml): 56.6% at 70 μg/ml | % Inhibition (synergistic studies, ratio Pentagalloyl glucose:Methyl gallate, concentration not given): 49%
